Experimental data taken from ChEMBL document CHEMBL2385054, “Lead optimization of a 4-aminopyridine benzamide scaffold to identify potent, selective, and orally bioavailable TYK2 inhibitors” (J Med Chem, 2013).
In brackets after ≈: the same amount, converted by molar mass.

Legend:
[1] = physchem; details: PBS buffer, pH 7.4
[2] = in vivo; details: CD1, mouse, plasma, po, 100 mg/kg
[3] = in vivo; details: Sprague-Dawley, rat, po, 5 mg/kg
[4] = physchem; details: octanol/aqueous buffer, pH 7.4
[5] = in vivo; details: Sprague-Dawley, rat, plasma, iv, 1 mg/kg
[6] = in vitro; details: rat, plasma
[7] = in vitro; details: human, plasma
[8] = in vitro; details: mouse, liver microsomes
[9] = in vitro; details: rat, liver microsomes
[10] = in vitro; details: human, liver microsomes
[11] = in vivo; details: CD1, mouse, po, 100 mg/kg
[12] = in vitro; details: dog, MDCK
[13] = in vivo; details: Sprague-Dawley, rat, iv, 1 mg/kg
[14] = in vivo; details: Sprague-Dawley, rat
[15] = in vitro; details: mouse, plasma
[16] = in vitro; details: dog, MDCK; remark: listed apart in the source
[17] = in vivo; details: CD1, mouse, plasma, iv, 1 mg/kg
[18] = in vivo; details: CD1, mouse, plasma, po, 5 mg/kg
[19] = in vivo; details: CD1, mouse, iv, 1 mg/kg
[20] = in vivo; details: CD1, mouse, po, 5 mg/kg
[21] = in vivo; details: CD1, mouse, plasma, iv, 1 mg/kg; remark: listed apart in the source
[22] = in vivo; details: CD1, mouse
[23] = organism: Homo sapiens; details: 180 nM
[24] = biological target: Ribosomal protein S6 kinase alpha-2 (Homo sapiens) (UniProt Q15349); details: 180 nM
[25] = biological target: Ribosomal protein S6 kinase alpha-3 (Homo sapiens) (UniProt P51812); details: 180 nM
[26] = biological target: Ribosomal protein S6 kinase alpha-6 (Homo sapiens) (UniProt Q9UK32); details: 180 nM
[27] = in vitro; details: human, liver microsomes; remark: listed apart in the source
[28] = biological target: Cyclin-dependent kinase 5 (Homo sapiens) (UniProt Q00535); details: 180 nM
[29] = biological target: Tyrosine-protein kinase Lck (Homo sapiens) (UniProt P06239); details: 180 nM
[30] = organism: Mus musculus; assay: animal or person; details: C57BL/6, po, read-out: INH
[31] = organism: Mus musculus; assay: animal or person; details: C57BL/6, po, read-out: INH; remark: listed apart in the source
[32] = organism: Mus musculus; assay: animal or person; details: C57BL/6, po, read-out: INH; remark: listed apart in the source
[33] = organism: Mus musculus; assay: animal or person; details: C57BL/6, po, read-out: INH; remark: listed apart in the source

Chain of Ribosomal protein S6 kinase alpha-6 (Homo sapiens) (Q9UK32 whole entry): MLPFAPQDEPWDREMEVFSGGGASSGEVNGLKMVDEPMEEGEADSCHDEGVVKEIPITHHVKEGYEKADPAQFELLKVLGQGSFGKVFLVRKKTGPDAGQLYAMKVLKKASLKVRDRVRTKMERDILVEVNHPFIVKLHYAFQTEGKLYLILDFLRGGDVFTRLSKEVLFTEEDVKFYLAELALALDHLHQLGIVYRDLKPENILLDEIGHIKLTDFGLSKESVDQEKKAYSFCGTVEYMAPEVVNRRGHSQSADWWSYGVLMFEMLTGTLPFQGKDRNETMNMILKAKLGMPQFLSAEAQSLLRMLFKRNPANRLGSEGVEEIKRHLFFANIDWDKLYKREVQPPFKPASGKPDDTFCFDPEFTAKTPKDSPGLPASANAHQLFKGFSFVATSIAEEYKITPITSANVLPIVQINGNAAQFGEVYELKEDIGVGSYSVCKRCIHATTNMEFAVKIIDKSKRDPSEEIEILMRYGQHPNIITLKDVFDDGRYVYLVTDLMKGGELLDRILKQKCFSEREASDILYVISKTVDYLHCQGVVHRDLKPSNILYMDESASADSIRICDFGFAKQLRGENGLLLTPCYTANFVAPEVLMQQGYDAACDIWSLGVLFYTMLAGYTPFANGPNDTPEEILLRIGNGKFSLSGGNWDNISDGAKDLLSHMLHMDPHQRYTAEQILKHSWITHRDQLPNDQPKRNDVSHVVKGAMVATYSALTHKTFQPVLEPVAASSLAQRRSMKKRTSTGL
Chain of Cyclin-dependent kinase 5 (Homo sapiens) (Q00535 whole entry, looked up): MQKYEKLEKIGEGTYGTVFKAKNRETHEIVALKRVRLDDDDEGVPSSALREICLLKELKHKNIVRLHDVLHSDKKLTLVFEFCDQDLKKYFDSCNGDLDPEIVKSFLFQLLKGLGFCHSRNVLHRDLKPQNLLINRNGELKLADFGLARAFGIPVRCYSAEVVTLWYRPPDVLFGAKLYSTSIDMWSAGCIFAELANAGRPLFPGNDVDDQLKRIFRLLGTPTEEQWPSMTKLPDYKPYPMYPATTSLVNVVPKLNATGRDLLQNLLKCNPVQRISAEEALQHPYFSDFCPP
Chain of Ribosomal protein S6 kinase alpha-3 (Homo sapiens) (P51812 whole entry): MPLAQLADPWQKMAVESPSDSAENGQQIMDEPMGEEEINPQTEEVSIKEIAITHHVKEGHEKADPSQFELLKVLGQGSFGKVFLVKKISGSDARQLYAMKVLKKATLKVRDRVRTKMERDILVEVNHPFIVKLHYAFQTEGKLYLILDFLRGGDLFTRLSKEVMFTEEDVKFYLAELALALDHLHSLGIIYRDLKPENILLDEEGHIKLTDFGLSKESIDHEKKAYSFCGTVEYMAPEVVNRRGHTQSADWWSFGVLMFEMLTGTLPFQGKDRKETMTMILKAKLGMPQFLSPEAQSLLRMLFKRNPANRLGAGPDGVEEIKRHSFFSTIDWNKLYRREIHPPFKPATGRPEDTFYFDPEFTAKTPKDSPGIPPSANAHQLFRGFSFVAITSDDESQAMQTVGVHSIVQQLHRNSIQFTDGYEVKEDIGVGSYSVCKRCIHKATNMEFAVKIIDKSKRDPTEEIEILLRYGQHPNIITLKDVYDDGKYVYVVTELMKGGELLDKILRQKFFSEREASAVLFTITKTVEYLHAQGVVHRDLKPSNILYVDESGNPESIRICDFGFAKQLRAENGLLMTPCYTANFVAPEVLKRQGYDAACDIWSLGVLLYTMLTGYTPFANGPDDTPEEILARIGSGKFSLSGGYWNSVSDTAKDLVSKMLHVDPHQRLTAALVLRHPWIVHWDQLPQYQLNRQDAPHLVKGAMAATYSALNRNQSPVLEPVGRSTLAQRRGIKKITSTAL
Chain of Tyrosine-protein kinase Lck (Homo sapiens) (P06239 2-509 limits assumed): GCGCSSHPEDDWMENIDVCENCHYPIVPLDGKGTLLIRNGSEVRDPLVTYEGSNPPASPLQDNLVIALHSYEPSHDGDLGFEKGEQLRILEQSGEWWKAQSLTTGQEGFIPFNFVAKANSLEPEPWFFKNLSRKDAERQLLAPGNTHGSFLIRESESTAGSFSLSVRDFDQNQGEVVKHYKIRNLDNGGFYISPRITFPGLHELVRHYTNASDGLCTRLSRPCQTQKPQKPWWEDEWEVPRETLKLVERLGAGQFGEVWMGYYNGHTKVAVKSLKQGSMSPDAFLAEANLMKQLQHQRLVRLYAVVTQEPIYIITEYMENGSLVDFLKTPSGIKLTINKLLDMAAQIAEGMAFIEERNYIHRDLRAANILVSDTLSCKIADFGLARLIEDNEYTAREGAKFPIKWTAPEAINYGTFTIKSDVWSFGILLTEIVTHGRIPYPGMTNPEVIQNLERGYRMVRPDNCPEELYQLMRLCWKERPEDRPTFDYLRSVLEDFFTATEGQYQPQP
Chain of Ribosomal protein S6 kinase alpha-2 (Homo sapiens) (Q15349 whole entry): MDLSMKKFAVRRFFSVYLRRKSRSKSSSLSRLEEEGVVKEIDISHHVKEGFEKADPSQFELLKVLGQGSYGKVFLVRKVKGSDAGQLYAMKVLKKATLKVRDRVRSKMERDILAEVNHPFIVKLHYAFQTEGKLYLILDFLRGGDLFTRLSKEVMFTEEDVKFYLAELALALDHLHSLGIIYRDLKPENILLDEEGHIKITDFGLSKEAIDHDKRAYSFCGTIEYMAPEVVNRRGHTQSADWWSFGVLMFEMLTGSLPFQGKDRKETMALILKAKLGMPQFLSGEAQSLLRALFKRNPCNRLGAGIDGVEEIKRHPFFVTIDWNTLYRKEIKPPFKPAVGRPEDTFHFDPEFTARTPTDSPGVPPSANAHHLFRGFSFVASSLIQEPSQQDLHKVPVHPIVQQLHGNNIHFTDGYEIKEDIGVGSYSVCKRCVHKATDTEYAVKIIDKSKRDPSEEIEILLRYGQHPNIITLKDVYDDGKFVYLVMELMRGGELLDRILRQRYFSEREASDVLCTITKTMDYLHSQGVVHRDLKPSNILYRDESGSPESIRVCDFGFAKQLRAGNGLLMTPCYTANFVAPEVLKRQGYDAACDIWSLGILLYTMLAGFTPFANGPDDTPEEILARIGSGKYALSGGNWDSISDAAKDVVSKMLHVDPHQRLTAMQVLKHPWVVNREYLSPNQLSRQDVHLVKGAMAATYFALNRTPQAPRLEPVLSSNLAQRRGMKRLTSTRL

SMILES | solubility [1] [µg/mL] | AUC [2] [µM·h] | bioavailability [3] [%] | logD [4] | clearance [5] [mL/min/kg] | fraction unbound [6] | fraction unbound [7] | CLhep predicted [8] [mL/min/kg] | CLhep predicted [9] [mL/min/kg] | CLhep predicted [10] [mL/min/kg] | Cmax [11] [µM] | Papp A→B [12] [×10⁻⁶ cm/s] | Vd [13] [L/kg] | half-life [14] [min] | fraction unbound [15] | efflux ratio [16] | other results
O=C(Nc1ccnc(NC(=O)C2CC2)c1)c1c(Cl)cc(-c2cn[nH]c2)cc1Cl | 1 (≈ 2.4 µM) | – | – | – | – | – | – | – | – | – | – | – | – | – | – | – | –
N#Cc1cc(Cl)c(C(=O)Nc2ccnc(NC(=O)[C@H]3C[C@H]3F)c2)c(Cl)c1 | 74 (≈ 188 µM) | 1090 | 100 | 2.8 | 4.6 | 0.082 | 0.068 | 36 | 10 | 11 | 143 | 12 | 1 | 246 | 0.017 | 1.5 | –
O=C(Nc1ccnc(NC(=O)C2CC2)c1)c1c(Cl)cc(-c2nnc[nH]2)cc1Cl | 2 (≈ 4.79 µM) | – | – | – | – | – | – | – | – | – | – | – | – | – | – | – | –
N#Cc1cc(Cl)c(C(=O)Nc2ccnc(NC(=O)C3CC3)c2)c(Cl)c1 | 64 (≈ 171 µM) | 818 | 86 | 3.2 | 3.1 | 0.059 | 0.022 | 38 | 12 | 8 | 119 | 15 | 0.8 | 252 | 0.032 | 1 | inhibition [23]: 68%; inhibition [24]: 80%; inhibition [25]: 73%; inhibition [26]: 80%; metabolised [27]: < 2%; Vd [19]: 0.9 L/kg; bioavailability [20]: 100%; inhibition [28]: 61%; clearance [21]: 13 mL/min/kg; half-life [22]: 60 min; inhibition [29]: 61%
O=C(Nc1ccnc(NC(=O)[C@H]2C[C@H]2F)c1)c1c(Cl)cccc1Cl | 126 (≈ 342 µM) | 50 | 100 | 2.9 | 15 | 0.048 | 0.025 | 55 | 21 | 11 | 47 | 20 | 1 | 108 | 0.018 | 0.8 | –

Now from value to molecule, other results behind:

solubility [1] [µg/mL] | AUC [2] [µM·h] | bioavailability [3] [%] | logD [4] | clearance [5] [mL/min/kg] | fraction unbound [6] | fraction unbound [7] | CLhep predicted [8] [mL/min/kg] | CLhep predicted [9] [mL/min/kg] | CLhep predicted [10] [mL/min/kg] | Cmax [11] [µM] | Papp A→B [12] [×10⁻⁶ cm/s] | Vd [13] [L/kg] | half-life [14] [min] | fraction unbound [15] | efflux ratio [16] | SMILES | other results
– | – | 100 | 3.4 | 21 | 0.041 | 0.049 | 64 | 16 | 7 | – | 30 | 1.1 | 72 | 0.044 | 0.4 | O=C(Nc1ccnc(NC(=O)C2CC2)c1)c1c(Cl)cccc1Cl | clearance [17]: 65 mL/min/kg; AUC [18]: 2.6 µM·h; Vd [19]: 0.6 L/kg; bioavailability [20]: 73%; clearance [21]: 65 mL/min/kg; half-life [22]: 18 min
28 (≈ 79.6 µM) | – | 100 | – | 39 | 0.122 | 0.066 | 64 | 20 | 4 | – | 30 | 1.2 | 30 | 0.036 | 0.4 | O=C(Nc1ccnc(NC(=O)[C@H]2C[C@H]2F)c1)c1c(F)cccc1Cl | –
53 (≈ 141 µM) | 917 | 70 | 2.5 | 1 | 0.09 | 0.134 | 34 | 11 | 8 | 108 | 11 | 2.3 | 2400 | 0.05 | 1.5 | N#Cc1cc(F)c(C(=O)Nc2ccnc(NC(=O)[C@H]3C[C@H]3F)c2)c(Cl)c1 | inhibition in vivo at 10 mg/kg [30]: 60%; inhibition in vivo at 100 mg/kg [31]: 77%; inhibition in vivo at 30 mg/kg [32]: 72%; inhibition in vivo at 70 mg/kg [33]: 88%
